Assay results: patent US10561703B2, “Method of modulating sex hormone levels using a sex hormone secretion modulator” (GEMVAX & KAEL CO., LTD., priority 2013, dated 2020)

System: Testosterone
Assay: Testosterone level in blood (serum CLIA) after repeated sc PEP-1
Format: in vivo, SD rats
Experimental: PEP-1 (peptide of SEQ ID NO: 1), lyophilized white powder, obtained according to the method mentioned in example 1 was dissolved in 0.9% of saline, considering the correction factor of PEP-1 (purity: 94.13%, content: 92.36%, correction factor: 1.15). 50 mg/mL stock solution was further diluted into 20 mg/mL, 2 mg/mL, and 1 mg/mL with 0.9% saline, and stored at 4° C. for a week until the use.
The purpose of this example is to confirm the change of sexual hormones in blood from SD rats with 7 days repeated daily administration of SEQ ID NO: 1 peptide, PEP-1. This experiment followed the Ethics Regulation of Animal Test by KAMSI Inc. (Korea Animal Medical Science Institute). In addition, this experiment, Non-GLP experiment, referred to the MFDS (Ministry of Food and Drug Safety) notification; Agent 2013-40 (5th April 2013), Principles of Good Laboratory Practice (1997).
SPF Rats (Crlj:CD(SD)) were purchased from ORIENTBio Inc. (Mokdong-ri, Buk-myeon, Gapyeong-gun, Gyeonggi-do, Republic of Korea). 75 male (6.5 weeks old and 190˜210 g) and 75 female (6.5 weeks old and 160˜180 g) rats were monitored for 4 days, and 64 of male and female rats (each) were selected for the experiment. Raising condition is as follows; 23±3° C. of temperature, […] of relative humidity, 10˜20 times/hr of number of air changes, 12 hours (8 a.m.˜8 p.m.) of lighting with 150˜300 Lux of intensity.
64 male and female […] (mentioned above) were divided into 8 groups. Administration regimen, for example, drugs, routes, dosages, and volumes were as follows:
The detailed administration regimen is as follows; once a day, twice a day and twice a week in each experimental group. Injection initiated at 10 a.m. every day, and each rat was injected at one minute intervals. Rats in Group 9, 10, 13 and 14 were injected twice a week. Administration of high dose test agent preceded that of low dose. The volume of injection was calculated using recently measured weight of rats, and it was 5 mL/kg. Subcutaneous injection was performed as follows; assistant tilted the back of rat upward, and experimenter sterilized the back of rat with 70% alcohol, followed by subcutaneous injection of test agent with 26 G syringe.
1.4 mL of blood sample (0.7 mL of serum) was collected after measurement of weight (Day 0). Next day (1 Day), 1.4 mL of blood sample (0.7 mL of serum) was collected twice after injection of test agent (4 hrs and 8 hrs after administration of test agent). For next 6 days (Day 2˜Day 7), 1.4 mL of blood was extracted once everyday (4 hours after injection of test agent). Dose and volume of test agent of each group followed the Table 3, and injection time zone was same every day. Blood was extracted from the jugular vein, and left at room temperature for 30 minutes. Serum was separated using centrifugation (10,000 rpm for 5 minutes), and stored at −70±5° C. in Deep freezer until the use. Blood extraction from each subject was done in the same time zone every day.
A CLIA (Chemi-Luminescence Immune Assay) Kit was used to analyze Testosterone, Estradiol E2, FSH (Follicle stimulating hormone), and LH (Luteinizing hormone). Analysis was completed within 48 hrs after blood extraction (Laboratory Medicine Department, Chung-Ang University Hospital), and detailed method is as follows; One-way ANOVA was used to verify the comparison between the vehicle and PEP-1, and between different doses of PEP-1. For further analysis, Duncan test was used as parametric test and Dunnett's test as non-parametric test. p<0.05 represents the statistical significance, and all statistical analysis was carried out with SPSS 10.1.
Testosterone was analyzed using the samples prepared from example 2. 15 μL of serum was used for analysis. Fundamentals of analysis is competitive immunoassay based on direct chemi-luminescent. As mentioned in example 2, CLIA (Chemi-luminescence immune assay) Kit was used for Testosterone analysis, following the manufacture's protocol. […]

EARPALLTSRLRFIPK (listed as Homo sapiens) [PEP-1, hormone secretion modulator / GnRH analog]
Testosterone level in blood (G3 Female 5 mg/kg sc 1/day x7, 7 days): 2.91 ng/dL | Testosterone level in blood (G4 Male 5 mg/kg sc 1/day x7, 4 hr): 0.12 ng/dL | Testosterone level in blood (G4 Male 5 mg/kg sc 1/day x7, 8 hr): 0.06 ng/dL | Testosterone level in blood (G4 Male 5 mg/kg sc 1/day x7, 2 days): 0.04 ng/dL | Testosterone level in blood (G4 Male 5 mg/kg sc 1/day x7, 3 days): 0.06 ng/dL | Testosterone level in blood (G4 Male 5 mg/kg sc 1/day x7, 4 days): 0.15 ng/dL | Testosterone level in blood (G4 Male 5 mg/kg sc 1/day x7, 5 days): 0.13 ng/dL | Testosterone level in blood (G4 Male 5 mg/kg sc 1/day x7, 6 days): 0.19 ng/dL | Testosterone level in blood (G4 Male 5 mg/kg sc 1/day x7, 7 days): 0.19 ng/dL | Testosterone level in blood (G4 Male 5 mg/kg sc 1/day x7, pre): 0.2 ng/dL | Testosterone level in blood (G6 Male 10 mg/kg sc 1/day x7, 4 hr): 0.15 ng/dL | Testosterone level in blood (G6 Male 10 mg/kg sc 1/day x7, 8 hr): 0.01 ng/dL | Testosterone level in blood (G6 Male 10 mg/kg sc 1/day x7, 2 days): 0.01 ng/dL | Testosterone level in blood (G6 Male 10 mg/kg sc 1/day x7, 3 days): 0.05 ng/dL | Testosterone level in blood (G6 Male 10 mg/kg sc 1/day x7, 4 days): 0.12 ng/dL | Testosterone level in blood (G6 Male 10 mg/kg sc 1/day x7, 5 days): 0.1 ng/dL | Testosterone level in blood (G6 Male 10 mg/kg sc 1/day x7, 6 days): 0.12 ng/dL | Testosterone level in blood (G6 Male 10 mg/kg sc 1/day x7, 7 days): 0.11 ng/dL | Testosterone level in blood (G6 Male 10 mg/kg sc 1/day x7, pre): 0.13 ng/dL | Testosterone level in blood (G8 Male 10 mg/kg sc 2/day x4, 4 hr): 0.12 ng/dL | Testosterone level in blood (G8 Male 10 mg/kg sc 2/day x4, 8 hr): 0.04 ng/dL | Testosterone level in blood (G8 Male 10 mg/kg sc 2/day x4, 2 days): 0.01 ng/dL | Testosterone level in blood (G8 Male 10 mg/kg sc 2/day x4, 3 days): 0.07 ng/dL | Testosterone level in blood (G8 Male 10 mg/kg sc 2/day x4, 4 days): 0.05 ng/dL | Testosterone level in blood (G8 Male 10 mg/kg sc 2/day x4, 5 days): 0.18 ng/dL | Testosterone level in blood (G8 Male 10 mg/kg sc 2/day x4, 6 days): 0.08 ng/dL | Testosterone level in blood (G8 Male 10 mg/kg sc 2/day x4, 7 days): 0.12 ng/dL | Testosterone level in blood (G8 Male 10 mg/kg sc 2/day x4, pre): 0.17 ng/dL | Testosterone level in blood (G9 Female 10 mg/kg sc 2/week x2 (days 1,7), 4 hr): 7.92 ng/dL | Testosterone level in blood (G9 Female 10 mg/kg sc 2/week x2 (days 1,7), 8 hr): 7.57 ng/dL | Testosterone level in blood (G9 Female 10 mg/kg sc 2/week x2 (days 1,7), 2 days): 0.9 ng/dL | Testosterone level in blood (G9 Female 10 mg/kg sc 2/week x2 (days 1,7), 3 days): 1.05 ng/dL | Testosterone level in blood (G9 Female 10 mg/kg sc 2/week x2 (days 1,7), 4 days): 1.21 ng/dL | Testosterone level in blood (G9 Female 10 mg/kg sc 2/week x2 (days 1,7), 5 days): 1.73 ng/dL | Testosterone level in blood (G9 Female 10 mg/kg sc 2/week x2 (days 1,7), 6 days): 1.67 ng/dL | Testosterone level in blood (G9 Female 10 mg/kg sc 2/week x2 (days 1,7), 7 days): 9.43 ng/dL | Testosterone level in blood (G9 Female 10 mg/kg sc 2/week x2 (days 1,7), pre): 2.3 ng/dL | Testosterone level in blood (G10 Male 10 mg/kg sc 2/week x2 (days 1,7), 4 hr): 0.16 ng/dL | Testosterone level in blood (G10 Male 10 mg/kg sc 2/week x2 (days 1,7), 8 hr): 0.02 ng/dL | Testosterone level in blood (G10 Male 10 mg/kg sc 2/week x2 (days 1,7), 2 days): 0 ng/dL | Testosterone level in blood (G10 Male 10 mg/kg sc 2/week x2 (days 1,7), 3 days): 0.06 ng/dL | Testosterone level in blood (G10 Male 10 mg/kg sc 2/week x2 (days 1,7), 4 days): 0.17 ng/dL | Testosterone level in blood (G10 Male 10 mg/kg sc 2/week x2 (days 1,7), 5 days): 0.08 ng/dL | Testosterone level in blood (G10 Male 10 mg/kg sc 2/week x2 (days 1,7), 6 days): 0.1 ng/dL | Testosterone level in blood (G10 Male 10 mg/kg sc 2/week x2 (days 1,7), 7 days): 0.13 ng/dL | Testosterone level in blood (G10 Male 10 mg/kg sc 2/week x2 (days 1,7), pre): 0.15 ng/dL | Testosterone level in blood (G11 Female 100 mg/kg sc 1/day x7, 4 hr): 7.73 ng/dL | Testosterone level in blood (G11 Female 100 mg/kg sc 1/day x7, 8 hr): 7.41 ng/dL | Testosterone level in blood (G11 Female 100 mg/kg sc 1/day x7, 2 days): 3.92 ng/dL | Testosterone level in blood (G11 Female 100 mg/kg sc 1/day x7, 3 days): 1.55 ng/dL | Testosterone level in blood (G11 Female 100 mg/kg sc 1/day x7, 4 days): 0.63 ng/dL | Testosterone level in blood (G11 Female 100 mg/kg sc 1/day x7, 5 days): 0.55 ng/dL
